Data: ChEMBL document CHEMBL4184130, “Zamamidine D, a Manzamine Alkaloid from an Okinawan Amphimedon sp. Marine Sponge” (J Nat Prod, 2017)
Values after ≈ are worked out from the molar mass of the structure shown.

Columns and labels:
[1] = test system: Escherichia coli; test: Antimicrobial activity against Escherichia coli ATCC 25922 incubated for 72 hrs; assay type: functional; conditions: ATCC 25922, 72 h
[2] = test system: Cryptococcus neoformans; test: Antimicrobial activity against Cryptococcus neoformans IFM62681 incubated for 72 hrs; assay type: functional, organism-based; conditions: IFM62681, 72 h
[3] = test system: Trichophyton mentagrophytes; test: Antimicrobial activity against Trichophyton mentagrophytes IFM62679 incubated for 72 hrs; assay type: functional, organism-based; conditions: IFM62679, 72 h
[4] = test system: Aspergillus niger; test: Antimicrobial activity against Aspergillus niger IFM62678 incubated for 72 hrs; assay type: functional, organism-based; conditions: IFM62678, 72 h
[5] = test system: Staphylococcus aureus; test: Antimicrobial activity against Staphylococcus aureus 209P incubated for 72 hrs; assay type: functional
[6] = test system: Bacillus subtilis; test: Antimicrobial activity against Bacillus subtilis PC1219 incubated for 72 hrs; assay type: functional; conditions: PC1219, 72 h
[7] = test system: Candida albicans; test: Antimicrobial activity against Candida albicans IFM62680 incubated for 72 hrs; assay type: functional, organism-based; conditions: IFM62680, 72 h
[8] = test system: Micrococcus luteus; test: Antimicrobial activity against Micrococcus luteus IFM2066 incubated for 72 hrs; assay type: functional; conditions: IFM2066, 72 h

**Q.** Which results are given for NCCc1c(C(C2=C[C@@]3(O)CC/C=C\CCCCN4CC[C@@H]2[C@]2(C[C@@H]5/C=C\CCCCN5[C@H]23)C4)c2[nH]c3ccccc3c2CCN)[nH]c2ccccc12?
**A.** MIC [1]: 32 µg/mL (≈ 44.9 µM); IC50 [2]: 2 µg/mL (≈ 2.8 µM); IC50 [3]: 8 µg/mL (≈ 11.2 µM); IC50 [4]: 16 µg/mL (≈ 22.4 µM); MIC [5]: 8 µg/mL (≈ 11.2 µM); MIC [6]: 8 µg/mL (≈ 11.2 µM); IC50 [7]: 16 µg/mL (≈ 22.4 µM); MIC [8]: 8 µg/mL (≈ 11.2 µM)
